One test has as its target T1, eeAChE (Electrophorus electricus, UniProt O42275).
T1 construct: purchased Sigma-Aldrich
Nature of the test: Kinetic study of AChE inhibition (Lineweaver–Burk). Type of test: biochemical. To be noted: Lineweaver–Burk plot, 0, 2, 5, 10, 20 µM. How it is done:
(§1) In each case, the kinetic type of enzyme inhibition was obtained through the modified Ellman’s method and Lineweaver–Burk secondary plots.
(§2) Figure 2. […] (B) Lineweaver–Burk plot for the inhibition of eqBChE by compound 15j at different concentrations of substrate.
Kinetic studies were performed in the same manner as the determination of ChEs inhibition, while the substrate (ATC/BTC) was used in concentrations of 90, 150, 226, 452, and 904 µM. The concentrations of test compounds were set to 0, 2, 5, 10, and 20 µM for 15b and 0, 0.5, 1, 2, and 5 µM for 15j. The enzymatic reaction was extended to 7 min for eeAChE and eqBuChE before the determination of the absorption. Vmax and Km values of the Michaelis–Menten kinetics were calculated by nonlinear regression from substrate-velocity curves using GraphPad Prism 6.0. Linear regression was used for fitting the Lineweaver–Burk plots.

For test [1], the target named is T2, BChE (EC 3.1.1.8) from horse serum (Equus caballus, UniProt P81908).
T2 construct: horse serum BChE (eqBChE, Sigma-Aldrich); purchased Sigma-Aldrich; host or cells: horse serum
The test is described as follows: biochemical. To be noted: eqBChE; mean ± SEM of triplicate independent experiments; read-out: BChE IC50. How it is done: (§3) The data were expressed as IC50 values (Table 1).
(§4) The inhibitory activities of the target compounds towards AChE (from Electrophorus electricus (electric eeAChE, Sigma-Aldrich) and horse serum BChE (eqBChE, Sigma-Aldrich) or human AChE – huAChE; human BuChE – huBuChE (huAChE, huBuChE, Sigma-Aldrich) were measured by Ellman’s method. In 96-well plates, a mixture of phosphate buffer (0.1 M, pH 8.0, […]), 5,5′-dithiobis-2-nitrobenzoic acid (DTNB, 60 µL), acetylcholinestrase or butyrylcholinesterase (20 µL, 5 IU/mL) and different concentration of the compound solution (30 µL) was pre-incubated for 5 min followed by the addition of the substrate (acetylthiocholine iodide or butyrylthiocholine iodide, 20 µL). […] The measurement of each concentration for each compound was detected in triplicate. GraphPad Prism 6.0 (GraphPad Software, Inc., La Jolla, CA) was used for data processing. The inhibition curve was fitted by plotting percentage enzyme activity (100% for the reference) versus the logarithm of the concentration of tested compound. The half-maximal inhibitory concentration (IC50) values were calculated according to the inhibition curve and the data were shown in the layout of mean ± SEM by GraphPad Prism 6.0.

For test [2], the target named is T3, AChE (EC 3.1.1.7) from electric eel (Electrophorus electricus, UniProt O42275).
T3 construct: purchased Sigma-Aldrich
Nature of the test: biochemical. Format: biochemical. The procedure:
as §3, §4

The next test addresses T4, eqBChE (Equus caballus, UniProt P81908).
T4 construct: horse serum BChE (eqBChE, Sigma-Aldrich); purchased Sigma-Aldrich; host or cells: horse serum
The test is described as follows: Kinetic study of BChE inhibition (Lineweaver–Burk). Format: biochemical. The conditions noted are these: Lineweaver–Burk plot, 0, 0.5, 1, 2, 5 µM. The procedure:
as §1, §2
[…]. The enzymatic reaction was extended to 7 min for eeAChE and eqBuChE before the determination of the absorption. Vmax and Km values of the Michaelis–Menten kinetics were calculated by nonlinear regression from substrate-velocity curves using GraphPad Prism 6.0. Linear regression was used for fitting the Lineweaver–Burk plots.

T3 sequence (O42275 24-633): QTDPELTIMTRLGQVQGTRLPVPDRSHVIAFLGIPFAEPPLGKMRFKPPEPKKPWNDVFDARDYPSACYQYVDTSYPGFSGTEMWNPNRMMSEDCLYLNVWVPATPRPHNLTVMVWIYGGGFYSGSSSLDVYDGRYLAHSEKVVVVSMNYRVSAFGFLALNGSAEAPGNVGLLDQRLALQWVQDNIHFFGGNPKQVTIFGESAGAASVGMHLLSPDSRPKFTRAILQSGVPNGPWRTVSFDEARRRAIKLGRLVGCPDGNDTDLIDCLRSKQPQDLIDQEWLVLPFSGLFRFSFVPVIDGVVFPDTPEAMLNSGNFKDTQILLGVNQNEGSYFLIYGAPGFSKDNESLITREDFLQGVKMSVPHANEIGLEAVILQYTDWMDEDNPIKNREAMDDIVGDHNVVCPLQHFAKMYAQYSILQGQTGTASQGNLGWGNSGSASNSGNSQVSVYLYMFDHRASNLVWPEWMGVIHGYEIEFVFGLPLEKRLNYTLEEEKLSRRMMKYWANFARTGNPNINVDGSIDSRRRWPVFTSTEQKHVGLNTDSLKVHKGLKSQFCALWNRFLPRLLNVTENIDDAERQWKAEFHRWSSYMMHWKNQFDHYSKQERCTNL
T4 sequence (P81908 whole entry): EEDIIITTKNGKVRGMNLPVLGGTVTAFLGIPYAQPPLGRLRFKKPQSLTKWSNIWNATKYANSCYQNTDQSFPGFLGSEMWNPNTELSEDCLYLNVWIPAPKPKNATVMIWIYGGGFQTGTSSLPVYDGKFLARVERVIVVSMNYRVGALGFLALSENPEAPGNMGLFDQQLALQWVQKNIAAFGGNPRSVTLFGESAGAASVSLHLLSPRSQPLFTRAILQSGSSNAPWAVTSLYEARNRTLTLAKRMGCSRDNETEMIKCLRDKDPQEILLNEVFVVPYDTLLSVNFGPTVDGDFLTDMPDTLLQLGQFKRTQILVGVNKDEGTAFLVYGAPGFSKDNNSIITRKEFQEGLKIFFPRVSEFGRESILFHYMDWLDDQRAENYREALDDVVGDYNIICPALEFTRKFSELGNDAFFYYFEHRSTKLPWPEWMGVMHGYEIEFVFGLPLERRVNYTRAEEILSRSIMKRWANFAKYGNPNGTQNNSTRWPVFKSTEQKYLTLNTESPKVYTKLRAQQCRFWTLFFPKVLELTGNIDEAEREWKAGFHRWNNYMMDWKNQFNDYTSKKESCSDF
T2 sequence (P81908 whole entry): as above
T1 sequence (O42275 24-633): as the sequence (O42275 24-633) above

Regarding `Cc1ccccc1CN1CCC(CNS(=O)(=O)c2ccc3c(c2)n(C)c(=O)n3C)CC1` [Compound 15b, 1,3-dimethyl-N-((1–(2-methylbenzyl)piperidin-4-yl)methyl)-2-oxo-2,3-dihydro-1H-benzo[d]imidazole-5-sulphonamide], the “kinetic type of AChE inhibition” value at eeAChE is reported as “competitive”.
For `Cn1c(=O)n(C)c2cc(S(=O)(=O)NCC3CCN(Cc4cccc(Br)c4)CC3)ccc21` [Compound 15j, N-((1–(3-bromobenzyl)piperidin-4-yl)methyl)-1,3-dimethyl-2-oxo-2,3-dihydro-1H-benzo[d]imidazole-5-sulphonamide], the IC50 was 160 ± 40 nM in test [1] and 390 ± 150 nM in test [2] (eeAChE, mean ± SEM of triplicate independent experiments, read-out: AChE IC50). The “SI (selectivity index = AChE IC50/BChE IC50)” value in test [2] (eeAChE IC50 / eqBChE IC50) came out at 2.44. The “kinetic type of BChE inhibition” value at eqBChE is recorded as “competitive”.

Source of the values: article PMC6968383, “Design, synthesis, in vitro and in vivo evaluation of benzylpiperidine-linked 1,3-dimethylbenzimidazolinones as cholinesterase inhibitors against Alzheimer’s disease” (Journal of Enzyme Inhibition and Medicinal Chemistry, 2019).
